Eight compounds from PubChem BioAssay (NCI) can be followed below.

Each structure is given as a SMILES string. “And” between values parts separate entries of the source, which are not always exact repeats. Identical values can stand only once.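 Five compound concentrations were applied to cells in 96-well plates for 48 hours; endpoints were derived by simple linear interpolation of the resulting dose-response curve. The concentration for 50% growth inhibition is given as GI50. The concentration for full growth arrest is given as TGI.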

Test systems include NCI-H226 lung; CAKI-1 renal; SK-OV-3 ovarian; LOX IMVI melanoma; HOP-62 NSCLC; SF-268 CNS; BT-549 breast; HOP-92 NSCLC; HCT-15 colon; COLO 205 colon.
Experiment in all cases: NCI-60 cell line screen, 48 h

Consider `CCCCCCCC(=O)Nc1nc2[nH]c(CN3CCN(Cc4cccc(I)c4)CC3)c(CN3CCN(Cc4cccc(I)c4)CC3)c2c(=O)[nH]1`, for which the GI50 is 1.16 µM with NCI-H226 lung; 0.816 µM with CAKI-1 renal; 0.916 µM in the test on SK-OV-3 ovarian; 0.762 µM in the test on LOX IMVI melanoma; 0.936 µM with HOP-62 NSCLC; 0.829 µM with SF-268 CNS. For the same compound, the GI50 in the test on BT-549 breast is 0.885 µM; in the test with HOP-92 NSCLC, 0.668 µM; with HCT-15 colon it was 0.812 µM; in the test on COLO 205 colon, 0.972 µM. The TGI was 2.59 µM with NCI-H226 lung; 1.49 µM with CAKI-1 renal; 1.7 µM with SK-OV-3 ovarian; 1.44 µM in the test with LOX IMVI melanoma; 2.06 µM with HOP-62 NSCLC; 1.65 µM in the test on SF-268 CNS. The TGI with BT-549 breast is 1.83 µM; in the test with HOP-92 NSCLC it was 1.4 µM; in the test on HCT-15 colon it was 1.54 µM; in the test on COLO 205 colon, 1.97 µM.
Turning to `N[C@@H](Cc1c[nH]c2ccccc12)C(=O)NC1CCN(Cc2c[nH]c3ccc(Cl)cc23)CC1`, the GI50 was 15.4 µM with NCI-H226 lung; 17.8 µM with CAKI-1 renal; 14.6 µM in the test with SK-OV-3 ovarian; 2.77 µM with LOX IMVI melanoma; 11 µM in the test on HOP-62 NSCLC; 7.74 µM in the test on SF-268 CNS. Moreover, the GI50 was 16 µM with BT-549 breast, 3.86 µM in the test on HOP-92 NSCLC, 16.2 µM in the test on HCT-15 colon and 2.11 µM with COLO 205 colon. In addition, the TGI with NCI-H226 lung was 34.1 µM; in the test with CAKI-1 renal, 47.4 µM; in the test with SK-OV-3 ovarian, 28.1 µM; with LOX IMVI melanoma, 8.95 µM; in the test on HOP-62 NSCLC, 24.8 µM; with SF-268 CNS, 22 µM. For the same compound, the TGI in the test with BT-549 breast stood at 34.4 µM; in the test on HOP-92 NSCLC, 17.2 µM; with HCT-15 colon, 31 µM; with COLO 205 colon, 4.65 µM.
As to `Oc1cccc2cccnc12`, the GI50 in the test on NCI-H226 lung is 8.82 µM and 44.4 µM and 28.6 µM; in the test on SK-OV-3 ovarian, 42.2 µM and 46.1 µM and > 100 µM; in the test on LOX IMVI melanoma, 1.65 µM and 0.709 µM and 2.29 µM; in the test on HOP-62 NSCLC, 4.47 µM and 5.39 µM and 13.5 µM; in the test with SF-268 CNS, 4.04 µM and 32.7 µM and 3.29 µM; with HCT-15 colon, 2.04 µM and 5.51 µM and 2.52 µM. The GI50 with COLO 205 colon is 5.58 µM and 19.1 µM and 16.9 µM. Also, the TGI with NCI-H226 lung is 37.4 µM and > 100 µM and > 84 µM; in the test on CAKI-1 renal it was greater than 100 µM; with SK-OV-3 ovarian, greater than 100 µM; with LOX IMVI melanoma, 14.8 µM and > 100 µM; in the test with HOP-62 NSCLC, greater than 100 µM; in the test on SF-268 CNS, greater than 100 µM. For the same compound, the TGI in the test with BT-549 breast is greater than 100 µM; in the test on HOP-92 NSCLC it was greater than 100 µM; with HCT-15 colon it was greater than 100 µM; in the test on COLO 205 colon it was 40.3 µM and 67.7 µM and > 100 µM.
Consider `NC(=O)c1ccc(I)c([N+](=O)[O-])c1`, for which the GI50 with NCI-H226 lung is greater than 100 µM; with CAKI-1 renal it was 32.2 µM; with SK-OV-3 ovarian, greater than 100 µM; in the test with LOX IMVI melanoma, 44.5 µM; in the test on HOP-62 NSCLC, greater than 100 µM; with SF-268 CNS it was greater than 100 µM. Further, the GI50 is greater than 100 µM with BT-549 breast, greater than 70.6 µM in the test on HOP-92 NSCLC, greater than 77.3 µM in the test on HCT-15 colon and greater than 100 µM in the test on COLO 205 colon. The TGI in the test on NCI-H226 lung is greater than 100 µM; in the test with CAKI-1 renal, greater than 57.4 µM; with SK-OV-3 ovarian, greater than 100 µM; in the test with LOX IMVI melanoma it was greater than 100 µM; with HOP-62 NSCLC it was greater than 100 µM; in the test on SF-268 CNS it was greater than 100 µM. For the same compound, the TGI with BT-549 breast, in the test with HOP-92 NSCLC, in the test with HCT-15 colon and in the test with COLO 205 colon was greater than 100 µM each time.
In the case of `Cc1cc2[nH]c(=O)c3c4ncccc4cn3c2cc1C`, the GI50 in the test on NCI-H226 lung is 6.04 µM; in the test with CAKI-1 renal, 3.21 µM; in the test on SK-OV-3 ovarian, 6.62 µM; in the test on LOX IMVI melanoma it was 1.72 µM; in the test with HOP-62 NSCLC, 3.81 µM; with SF-268 CNS it was 3.44 µM. In addition, the results for the GI50 in the test on BT-549 breast and in the test with HOP-92 NSCLC were 14.5 µM and 2.94 µM, respectively. Further, the TGI was greater than 100 µM in the test on NCI-H226 lung; greater than 100 µM in the test on CAKI-1 renal; 73.7 µM in the test with SK-OV-3 ovarian; 3.34 µM in the test on LOX IMVI melanoma; 39.4 µM in the test with HOP-62 NSCLC; greater than 100 µM in the test on SF-268 CNS. Moreover, the results for the TGI with BT-549 breast and in the test with HOP-92 NSCLC were 41.4 µM and 16.3 µM, respectively.
Regarding `N#Cc1ccc2[nH]cc(Cc3c[nH]c4ccc(C#N)cc34)c2c1`, the GI50 is 17.9 µM with NCI-H226 lung; 8.92 µM in the test on CAKI-1 renal; 6.99 µM with LOX IMVI melanoma; 11.6 µM in the test on HOP-62 NSCLC; 11.5 µM in the test on SF-268 CNS; 9.57 µM in the test with BT-549 breast. Besides, the GI50 was 8.52 µM in the test on HOP-92 NSCLC, 13.5 µM in the test with HCT-15 colon and 15.8 µM in the test on COLO 205 colon. In addition, the TGI in the test on NCI-H226 lung is greater than 50 µM; in the test with CAKI-1 renal it was 22.1 µM; with LOX IMVI melanoma, 18.9 µM; in the test on HOP-62 NSCLC, 28.5 µM; in the test with SF-268 CNS, 31.7 µM; in the test with BT-549 breast it was 20.7 µM. The results for the TGI with HOP-92 NSCLC, in the test on HCT-15 colon and in the test on COLO 205 colon were 22.8 µM, 42.2 µM and greater than 50 µM, respectively.
Consider `[Mn+3].[O-][Cl+3]([O-])([O-])O.[O-]c1ccccc1C=NCCN1CC1.[O-]c1ccccc1C=NCCN1CC1`, for which the GI50 in the test with NCI-H226 lung is 12.3 µM; in the test with CAKI-1 renal it was 28.8 µM; in the test with SK-OV-3 ovarian it was 35.2 µM; in the test on HOP-62 NSCLC, 28.6 µM; in the test on SF-268 CNS, 15.9 µM; in the test on BT-549 breast it was 19.4 µM. For the same compound, the GI50 was 94.8 µM in the test on HOP-92 NSCLC, 4.15 µM with HCT-15 colon and 28.9 µM in the test on COLO 205 colon. The TGI with NCI-H226 lung is 35.8 µM; with CAKI-1 renal, 68.1 µM; with SK-OV-3 ovarian, greater than 100 µM; in the test on HOP-62 NSCLC it was greater than 100 µM; with SF-268 CNS, greater than 100 µM; in the test with BT-549 breast, 50.8 µM. Further, the TGI in the test on HOP-92 NSCLC is greater than 100 µM; with HCT-15 colon, 18.3 µM; in the test with COLO 205 colon, 97.3 µM.
Take `COc1cc(/C=C2\C[C@H]3[C@@H]4CC=C5C[C@@H](O)CC[C@]5(C)[C@H]4CC[C@]3(C)[C@H]2O)ccc1OCCN1CCCCC1`: the GI50 with NCI-H226 lung is 2.53 µM; in the test with CAKI-1 renal, 1.74 µM; with LOX IMVI melanoma, 0.589 µM; with HOP-62 NSCLC it was 0.799 µM; in the test on SF-268 CNS, 1.74 µM; in the test with BT-549 breast, 1.18 µM. Also, the GI50 in the test with HOP-92 NSCLC is 0.688 µM; in the test with HCT-15 colon, 0.465 µM. For the same compound, the TGI in the test on NCI-H226 lung was determined as 5.62 µM; in the test with CAKI-1 renal, 3.36 µM; with LOX IMVI melanoma it was 1.34 µM; in the test with HOP-62 NSCLC, 1.68 µM; in the test with SF-268 CNS it was 12.5 µM; in the test with BT-549 breast, 2.49 µM. In addition, the TGI stood at 1.47 µM in the test with HOP-92 NSCLC and 1.03 µM in the test on HCT-15 colon.
